Test results published in patent US20060095982A1 (priority 2002, published 2006).
Marks after values point to notes of the source that are not given here.

Assays:
WT tobacco plants [1] = assay: Speciation of Hg by X-ray absorption spectroscopy, WT
WT tobacco plants [2] = assay: Plant growth and tolerance on Hg-amended soil (dry weight, root length), WT
[3] = test system: Untransformed E. coli cells (XL1-blue); assay: Mercury resistance bioassay in bacteria, untransformed control; details: 25 μM HgCl2
Bacopa monnieri = details: 5 μg/ml HgCl2; cited from earlier work
[4] = test system: WT tobacco plant (Petit Havana); assay: Hg accumulation in shoots and roots (CVAAS), WT
[5] = test system: mer-AB transgenic tobacco shoots and roots; assay: Speciation of Hg by X-ray absorption spectroscopy, transgenic plants; details: 100 μM for 15 d
Salvia natans = details: 5 μg/ml HgCl2; cited from earlier work
[6] = test system: transgenic tobacco lines 5A (pLDR-MerAB) and 9 (pLDR-MerAB-3′UTR); assay: Hg accumulation in shoots and roots (CVAAS), transgenic lines
[7] = test system: E. coli cells containing pLDR-MerAB and pLDR-MerAB-3′UTR; assay: Mercury resistance bioassay in bacteria, transformed clones; details: 24 hours at 37° C.
[8] = test system: chloroplast engineered pLDR-merAB and pLDR-merAB 3′UTR tobacco plants; assay: Plant growth and tolerance on Hg-amended soil (dry weight, root length), transgenic lines
[9] = test system: merAB seedlings (pLDR-MerAB and pLDR-MerAB-3′UTR clones); details: 14 days
[10] = test system: wild type tobacco plants (Petit Havana); details: 14 days
[11] = test system: leaf disks of transgenic tobacco lines; details: 10 μM PMA
[12] = test system: transgenic tobacco lines 5A (pLDR-MerAB) and 9 (pLDR-MerAB-3′UTR)
[13] = test system: leaf disks of wild type tobacco; details: 10 μM PMA
wild type tobacco plants = details: increase in PMA from 0 to 400 μM in soil, 14 d
Chlorella = assay: Preliminary heavy metal tolerance of wild-type Chlorella; details: preliminary studies

With `[Cl][Hg][Cl]` [HgCl2, mercuric chloride] the “form of mercury accumulated by WT plants (XAS edge-fitting)” value (WT tobacco plants [1]) was “entirely in the form of the mercury supplied”, the “effect on root lengths of WT” value (WT tobacco plants [2]; concentration in soil from 0 to 300 μM) was “not significantly affected” and the “growth of untransformed cells” value [3] was “unable to grow”. For the same molecule, the “reduction of chlorophyll content” value (Bacopa monnieri) was 35%, the “Hg accumulation, Root, WT” value ([4]; soil amended with 100 μM) was 97.04 and the “Hg accumulation, Shoot, WT” value ([4]; soil amended with 100 μM) was 4.74. For the same molecule, the “Hg accumulation, Root, WT” value ([4]; soil amended with 200 μM) was 143.8, the “Hg accumulation, Shoot, WT” value ([4]; soil amended with 200 μM) was 0.57 and the “Hg accumulation, Root, WT” value ([4]; soil amended with 300 μM) was 120.1. For the same molecule, the “Hg accumulation, Shoot, WT” value ([4]; soil amended with 300 μM) was 0.23, the “share of accumulated mercury in inorganic Hg-like form (XAS curve fitting)” value [5] was 77% and the “share of accumulated mercury in organic Hg-like form (XAS curve fitting)” value [5] was 33%. The “reduction of chlorophyll content” value (Salvia natans) was 26%, the “mercury accumulated in shoots of transgenic plants relative to WT” value ([6]; 100 μM) was 3 times and the “mercury accumulated in shoots of transgenic plants relative to WT” value ([6]; 200 μM) was 9 times. For the same molecule, the “Hg accumulation, Root, 5A” value ([6]; soil amended with 100 μM) was 115.1, the “Hg accumulation, Root, 9” value ([6]; soil amended with 100 μM) was 114.8 and the “Hg accumulation, Shoot, 5A” value ([6]; soil amended with 100 μM) was 7.42. For the same molecule, the “Hg accumulation, Shoot, 9” value ([6]; soil amended with 100 μM) was 6.27, the “Hg accumulation, Root, 5A” value ([6]; soil amended with 200 μM) was 215.5 and the “Hg accumulation, Root, 9” value ([6]; soil amended with 200 μM) was 149.5. For the same molecule, the “Hg accumulation, Shoot, 5A” value ([6]; soil amended with 200 μM) was 6.4**, the “Hg accumulation, Shoot, 9” value ([6]; soil amended with 200 μM) was 4.5* and the “Hg accumulation, Root, 5A” value ([6]; soil amended with 300 μM) was 333.8*. The “Hg accumulation, Root, 9” value ([6]; soil amended with 300 μM) was 377.4, the “Hg accumulation, Shoot, 5A” value ([6]; soil amended with 300 μM) was 0.6* and the “Hg accumulation, Shoot, 9” value ([6]; soil amended with 300 μM) was 0.7*. For the same molecule, the “growth in liquid broth” value ([7]; 25 and 50 μM HgCl2, LB broth) was “able to grow”, the “concentrations of HgCl2 in which cells were able to grow” value ([7]; solid agar plates, LB) was “up to 100 μM” and the “difference between dry weights of WT and transgenic lines” value ([8]; concentration from 0 to 300 μM in soil) was “no significant differences”. For the same molecule, the “effect on root lengths of transgenic lines” value ([8]; concentration in soil from 0 to 300 μM, compared to WT) was “increased the roots lengths” and the “toxicity to merAB-tobacco plants relative to PMA” value ([8]; supplied at the same concentration) was “less toxic”.

In the case of `CC(=O)[O-].[Hg+][c]1ccccc1` [PMA, phenylmercuric acetate], the “survival of merAB seedlings” value ([9]; 200 μM PMA in soil) is reported as “survived”, the “PMA concentration at which seedlings grew well” value ([9]; soil, both transgenic clones) is reported as “up to 100 μM” and the “form of mercury accumulated by WT plants (XAS edge-fitting)” value (WT tobacco plants [1]) is reported as “entirely in the form of the mercury supplied”. For the same molecule, the “average reduction of root length” value (WT tobacco plants [2]; WT, concentration increased from 0 μM to 300 μM) was 6 cm, the “dry weights of WT shoots and roots” value (WT tobacco plants [2]; concentration increased from 0 to 300 μM in soil, 15 days) was “decreased progressively” and the “survival of wild type plants” value ([10]; 50 μM PMA in soil) was “barely survived”. For the same molecule, the “effect on wild type plants” value ([10]; 100 and 200 μM PMA in soil) was “lethal”, the “chlorophyll content of leaf disks” value [11] was “markedly increased” and the “concentration tolerated when grown in soil” value ([12]; chloroplast transformed lines) was “up to 400 μM”. The “total dry weight of transgenic plants” value ([12]; increase in PMA until PMA reached 400 μM, soil, 14 d) was “no decrease in total dry weight”, the “chlorophyll content of leaf disks” value [13] was “reduced” and the “total dry weight of wild type plants” value (wild type tobacco plants) was “decreased progressively”. The “average reduction of root length” value ([8]; both transgenic lines, concentration increased from 0 μM to 300 μM) was 4 cm and the “dry weights of transgenic lines relative to WT” value ([8]; under PMA treatment) was 2 fold.

With `O=S(=O)([O-])[O-].[Cd+2]` [cadmium sulfate] the “level tolerated by Chlorella” value (Chlorella) was “at least 200 μM”.
